What was measured:
[1] = biological target: Recombinant human Cbl-b (aa 36-427) (Homo sapiens, UniProt Q13191); assay: Cbl-b Biochemical Assay (TR-FRET); details: read-out: TR-FRET hCbl-b IC50
[2] = test system: Jurkat (clone E6-1) cells with NFAT luciferase reporter; assay: Jurkat reporter assay (NFAT Luciferase); type: cell-based; details: Homo sapiens; Jurkat NFAT luciferase reporter cells, anti-CD3 stimulation, 6 hr; read-out: Jurkat NFAT EC50
[3] = biological target: T1, Recombinant human c-Cbl (aa 47-435) (Homo sapiens, UniProt P22681); assay: c-Cbl Biochemical Assay (TR-FRET); details: hc-Cbl Biochemical Assay (TR-FRET); read-out: TR-FRET hcCbl IC50
T1 sequence (P22681 47-435): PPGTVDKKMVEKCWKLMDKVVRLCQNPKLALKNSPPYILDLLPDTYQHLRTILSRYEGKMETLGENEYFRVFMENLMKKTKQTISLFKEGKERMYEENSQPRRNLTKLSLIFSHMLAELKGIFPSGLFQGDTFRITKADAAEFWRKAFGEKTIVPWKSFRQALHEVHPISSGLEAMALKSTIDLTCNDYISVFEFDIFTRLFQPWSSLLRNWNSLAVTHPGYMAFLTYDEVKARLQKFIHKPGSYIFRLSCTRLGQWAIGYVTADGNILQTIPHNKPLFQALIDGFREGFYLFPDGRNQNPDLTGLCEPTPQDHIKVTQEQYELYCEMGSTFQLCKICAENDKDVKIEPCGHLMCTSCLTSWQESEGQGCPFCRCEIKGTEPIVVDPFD

Sequence of Recombinant human Cbl-b (aa 36-427) (Q13191 36-427): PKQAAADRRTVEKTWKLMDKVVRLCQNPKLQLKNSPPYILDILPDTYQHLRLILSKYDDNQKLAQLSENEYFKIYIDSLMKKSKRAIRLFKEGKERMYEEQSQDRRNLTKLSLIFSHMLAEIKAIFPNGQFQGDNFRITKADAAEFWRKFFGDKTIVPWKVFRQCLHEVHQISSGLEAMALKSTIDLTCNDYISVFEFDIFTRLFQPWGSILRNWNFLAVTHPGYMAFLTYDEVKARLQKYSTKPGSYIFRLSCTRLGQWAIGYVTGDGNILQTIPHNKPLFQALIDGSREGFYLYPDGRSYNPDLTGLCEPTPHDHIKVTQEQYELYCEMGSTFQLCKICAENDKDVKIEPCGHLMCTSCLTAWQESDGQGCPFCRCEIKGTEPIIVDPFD

IC50 [1]	EC50 [2]	IC50 [3]	Compound
< 200 nM	< 200 nM	< 200 nM	Cn1cnnc1-c1cc(F)ccc1-c1cccc(-c2nc3cc(CNCC4COC4)cc(C(F)(F)F)c3o2)c1 [GB-2, 1-(2-(4′-Fluoro-2′-(4-methyl-4H-1,2,4-triazol-3-yl)-[1,1′-biphenyl]-3-yl)-7-(trifluoromethyl)benzo[d]oxazol-5-yl)-N-(oxetan-3-ylmethyl)methanamine]
< 200 nM	< 200 nM	< 200 nM	CCOCCNCc1cc(C(F)(F)F)c2oc(-c3cccc(-c4ccc(F)cc4-c4nncn4C)c3)nc2c1 [FI-2, 2-Ethoxy-N-((2-(4′-fluoro-2′-(4-methyl-4H-1,2,4-triazol-3-yl)-[1,1′-biphenyl]-3-yl)-7-(trifluoromethyl)benzo[d]oxazol-5-yl)methyl)ethan-1-amine]
< 200 nM	< 200 nM	< 200 nM	Cn1cnnc1-c1cc(F)ccc1-c1cccc(-c2nc3cc(CNCC4(O)CC(F)(F)C4)cc(C(F)(F)F)c3[nH]2)c1 [CK-2, 3,3-Difluoro-1-((((2-(4′-fluoro-2′-(4-methyl-4H-1,2,4-triazol-3-yl)-[1,1′-biphenyl]-3-yl)-7-(trifluoromethyl)-1H-benzo[d]imidazol-5-yl)methyl)amino)methyl)cyclobutan-1-ol]
< 200 nM	< 200 nM	< 200 nM	Cn1cnnc1-c1cc(F)ccc1-c1cccc(-c2nc3cc(CNC4CCCC4)cc(C(F)(F)F)c3o2)c1 [DS-2, N-((2-(4′-Fluoro-2′-(4-methyl-4H-1,2,4-triazol-3-yl)-[1,1′-biphenyl]-3-yl)-7-(trifluoromethyl)benzo[d]oxazol-5-yl)methyl)cyclopentanamine]
< 200 nM	< 200 nM	< 200 nM	Cn1cnnc1-c1cc(F)ccc1-c1cccc(-c2nc3cc(CN[C@@H]4CCC[C@@H]4F)cc(C(F)(F)F)c3o2)c1 [CW-5, (1R,2S)-2-Fluoro-N-((2-(4′-fluoro-2′-(4-methyl-4H-1,2,4-triazol-3-yl)-[1,1′-biphenyl]-3-yl)-7-(trifluoromethyl)benzo[d]oxazol-5-yl)methyl)cyclopentan-1-amine]
1000 to 10000 nM	1000 to 10000 nM	1000 to 10000 nM	Cn1cnnc1-c1cc(F)ccc1-c1cccc(-c2nc3ccc(CN[C@@H]4CCC[C@@H]4O)cc3s2)c1 [EK-5, (1S,2R)-2-(((2-(4′-Fluoro-2′-(4-methyl-4H-1,2,4-triazol-3-yl)-[1,1′-biphenyl]-3-yl)benzo[d]thiazol-6-yl)methyl)amino)cyclopentan-1-ol]
< 200 nM	< 200 nM	< 200 nM	Cn1cnnc1-c1cc(F)ccc1-c1cccc(-c2nc3cc(CNC4CC5(CCC5)C4)cc(C(F)(F)F)c3o2)c1 [FM-2, N-((2-(4′-Fluoro-2′-(4-methyl-4H-1,2,4-triazol-3-yl)-[1,1′-biphenyl]-3-yl)-7-(trifluoromethyl)benzo[d]oxazol-5-yl)methyl)spiro[3.3]heptan-2-amine]
< 200 nM	< 200 nM	< 200 nM	Cn1cnnc1-c1cc(F)ccc1-c1cc(-c2nc3cc(CNCC4CCC4)cc(C(F)(F)F)c3o2)cc(C2CC2)c1 [JU-1, 1-Cyclobutyl-N-((2-(5-cyclopropyl-4′-fluoro-2′-(4-methyl-4H-1,2,4-triazol-3-yl)-[1,1′-biphenyl]-3-yl)-7-(trifluoromethyl)benzo[d]oxazol-5-yl)methyl)methanamine]
< 200 nM	< 200 nM	< 200 nM	Cn1cnnc1-c1cc(F)ccc1-c1cccc(-c2nc3cc(CNC4CCC4)cc(C(F)(F)F)c3o2)c1 [GC-2, N-((2-(4′-Fluoro-2′-(4-methyl-4H-1,2,4-triazol-3-yl)-[1,1′-biphenyl]-3-yl)-7-(trifluoromethyl)benzo[d]oxazol-5-yl)methyl)cyclobutanamine]
< 200 nM	< 200 nM	< 200 nM	Cn1cnnc1-c1cc(F)ccc1-c1cccc(-c2nc3cc(CNC[C@@H](O)C4CC4)cc(C(F)(F)F)c3o2)c1 (single isomer, unassigned) [DT-3]

Source: patent publication US20250163038A1, “CBL-B MODULATORS AND USES THEREOF” (Nimbus Clio, Inc., priority 2021, published 2025)
